T1: hBest2 (Homo sapiens, UniProt Q8NFU1)
T1 sequence (Q8NFU1 1-509): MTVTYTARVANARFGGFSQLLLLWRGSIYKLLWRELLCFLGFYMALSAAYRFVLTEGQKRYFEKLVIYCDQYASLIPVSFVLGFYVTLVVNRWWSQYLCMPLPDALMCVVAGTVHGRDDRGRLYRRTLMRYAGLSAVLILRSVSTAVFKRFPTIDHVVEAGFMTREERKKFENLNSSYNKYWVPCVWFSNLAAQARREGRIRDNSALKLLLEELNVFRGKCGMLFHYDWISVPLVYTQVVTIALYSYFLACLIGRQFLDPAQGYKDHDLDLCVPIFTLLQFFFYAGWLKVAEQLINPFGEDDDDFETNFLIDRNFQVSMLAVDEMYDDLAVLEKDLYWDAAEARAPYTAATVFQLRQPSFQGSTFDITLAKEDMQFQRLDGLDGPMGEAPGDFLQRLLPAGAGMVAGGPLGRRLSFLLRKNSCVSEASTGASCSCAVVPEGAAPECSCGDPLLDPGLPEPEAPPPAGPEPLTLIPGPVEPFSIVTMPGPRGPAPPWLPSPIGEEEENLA


Legend:
[1] = molecular target: T1, hBest2; experiment: whole-cell patch clamp, HEK293; assay type: cell-based
[2] = molecular target: the molecule itself; experiment: cryo-EM structure

Row | Molecule | EC50 [1] [mM] | stoichiometry N [2]
1 | N[C@@H](CCC(=O)O)C(=O)O [glutamate] | 46 | –
2 | bovine bestrophin-2, purified for cryo-EM (GFP-His tag removed) (natural protein) MTVTYTARVAKARFGGFSKLLLLWRGSIYKLLWRELLCFLGLFMALSAAYRFVLTEEQKRYFEKLVLYCDRYASLIPVSFVLGFYVTLVVHRWWNQYLSMPLTDALMCVVVGTVHGHDERGRLYRRTLMRYAGLSGVLILRSVSTAVFKRFPTIDHVVEAGFMTREERKKFENLNSSYNKYWVPCVWFCNLAAQARREGRIRDNGAFKLLLEELNVFRSKCGMLFHYDWISVPLVYTQVVTIAVYSYFLACLIGRQFLDPAQGYKDHDLDLCVPIFTLLQFFFYAGWLKVAEQLINPFGEDDDDFETNFLIDRCFQVSMLAVDEMYDDLAMLEKDLYWDAAEARAPYTAATAFLMQQPSFQGSTFDITLAKEDMQFQRQDGLEAPLNEAHGDFLQRLLPVGTGMGTGGLL | – | 5

From PMC9873481 (Nature, 2022)
